Experimental data taken from patent US4640916A, “1,4-benzothiazine derivatives, compositions containing them and method of use” (priority 1984, dated 1987).
Where a name gives a salt, the structure may show the parent alone. Read-outs that look alike come from different tables or passages of the source.

How the values were obtained:
[1] = system: contraction of the aorta strip caused by KCl; assay: Vasodilating action: inhibition of contraction of rabbit aorta strip caused by KCl; type: cell-based; conditions: Oryctolagus cuniculus, compound 10^-5 M, KCl 60 mM, 15 min pretreatment, read-out: Inhibitory percent against contraction, KCl
Protocol: (§1) A spiral strip of aorta of a rabbit (2-3 mm width, about 3 cm length) was allowed to equilibrate by hanging under 2 g force in a Krebs-Henseleit solution. The solution was saturated with a mixture gas of 97% O2 --3% CO2 which was warmed to 37° C. Inhibitory actions of compounds (10^-5 M) of this invention against contraction of the aorta strip caused by KCl (60 mM), norepinephrine (NE) (10^-6 M) or serotonin (5--HT) (10^-6 M), by treating the strip with a compound of this invention 15 minutes before the test, are shown in Table 1 as inhibitory percent.

[2] = system: contraction of the aorta strip caused by norepinephrine (NE); assay: Vasodilating action: inhibition of contraction of rabbit aorta strip caused by norepinephrine (NE); type: cell-based; conditions: Oryctolagus cuniculus, compound 10^-5 M, NE 10^-6 M, 15 min pretreatment, read-out: Inhibitory percent against contraction, NE
Protocol: as §1

[3] = system: spontaneously hypertensive rats; assay: Antihypertensive action in spontaneously hypertensive rats (tail-cuff); type: in vivo; conditions: 1 h after administration
Protocol: Male 12 to 13 weeks old spontaneously hypertensive rats with about 200 mm Hg of blood pressure were used in groups of 3 individuals. Mean arterial blood pressures of these animals were measured by the tail-cuff method, then the animals were orally given 3-60 mg/kg of each test compound of this invention as 2 ml of its suspension in gum arabic. Blood pressure measurements were made again one hour after administration of each test compound.

[4] = system: contraction of the aorta strip caused by serotonin (5--HT); assay: Vasodilating action: inhibition of contraction of rabbit aorta strip caused by serotonin (5-HT); type: cell-based; conditions: Oryctolagus cuniculus, compound 10^-5 M, 5-HT 10^-6 M, 15 min pretreatment, read-out: Inhibitory percent against contraction, 5-HT
Protocol: as §1

[5] = system: contraction depending on intracellular Ca^++; assay: Intracellular Ca++ antagonism: inhibition of phenylephrine contraction of aorta strip in Ca++-free EGTA solution; type: cell-based, rabbit; conditions: Oryctolagus cuniculus; compound 10^-6 M; phenylephrine 10^-6 M; Ca++ 0 mM, EGTA 5 mM; read-out: Inhibitory percent (contraction depending on intracellular Ca++)
Protocol: A spiral strip of aorta of a rabbit (2-3 mm width, about 3 cm length) was allowed to equilibrate by hanging under 2 g force in a Krebs-Henseleit solution. The solution was saturated with a mixture gas 97% O2 --3% CO2, which was warmed to 37° C. The strip was moved into another Krebs-Henseleit solution containing Ca^++ OmM and EGTA 5 mM. Five minutes later, phenylephrine (10^-6 M) was added on the solution. The resulting contraction of the strip was made as the index of the contraction depending on intracellular Ca^++.

Row | SMILES | inhibition at 10 µM [1] [%] | inhibition at 10 µM [2] [%] | Antihypertensive effect (difference of blood pressure before and after medication) ([3]; 30 mg/Kg oral) | inhibition at 10 µM [4] [%] | inhibition at 1 µM [5] [%] | inhibition at 10 µM ([2]; 0.25 h) [%] | Antihypertensive effect (difference of blood pressure before and after medication) ([3]; 60 mg/Kg oral) | Antihypertensive effect (difference of blood pressure before and after medication) ([3]; 10 mg/Kg oral)
1 | Cc1ccc(N2CCN(CCCC3Sc4cccc(C)c4NC3=O)CC2)cc1 (stereo not shown) [Example 7] | 77 | 60 | – | – | – | – | – | –
2 | O=C1Nc2ccccc2SC1CCCN1CCN(c2ccccc2)CC1 (stereo not shown) [Example 2] | 70 | 100 | 43 ΔmmHg | 97 | – | – | – | –
3 | Cc1cc2c(cc1C)SC(CCCN1CCN(c3ccc(F)cc3)CC1)C(=O)N2 (stereo not shown) [Example 1, 2-[3-[4-(4-fluorophenyl)-1-piperazinyl]propyl]-6,7-dimethyl-2H-1,4-benzothiazin-3(4H)-one] | 50 | – | 35 ΔmmHg | – | 66 | 100 | – | –
4 | O=C1Nc2c(ccc3c2CCCC3)SC1CCCN1CCN(c2ccc(F)cc2)CC1 (stereo not shown) [Example 47, 3-[3-[4-(4-fluorophenyl)-1-piperazinyl]propyl]-7,8,9,10-tetrahydro-1H-naphtho[2,1-b][1,4]thiazin-2(3H)-one.hydrochloride] | – | – | 35 ΔmmHg | – | – | – | – | –
5 | CCN1C(=O)C(CCN2CCN(c3ccccc3OC)CC2)Sc2ccccc21 (stereo not shown) [Example 36, 4-ethyl-2-[2-[4-(2-methoxyphenyl)-1-piperazinyl]ethyl]-2H-1,4-benzothiazin-3(4H)-one] | 15 | – | – | 100 | – | 100 | – | –
6 | COc1ccccc1N1CCN(CCC2Sc3ccccc3N(C)C2=O)CC1 (stereo not shown) [Example 32] | – | 100 | – | 88 | – | – | 30 ΔmmHg | –
7 | COc1ccccc1N1CCN(CCCC2Sc3cccc(OC)c3NC2=O)CC1 (stereo not shown) [Example 4] | 18 | 100 | – | 12 | – | – | – | –
8 | Cc1cccc2c1NC(=O)C(CCCN1CCN(c3cccc(C(F)(F)F)c3)CC1)S2 (stereo not shown) [Example 19] | 55 | 100 | – | – | – | – | – | –
9 | COc1ccccc1N1CCN(CCCC2Sc3cc(C)cc(C)c3NC2=O)CC1 (stereo not shown) [Example 22] | 62 | 100 | 39 ΔmmHg | 15 | 100 | – | – | –
10 | Cc1cccc(N2CCN(CCCC3Sc4cccc(C)c4NC3=O)CC2)c1 (stereo not shown) [Example 18] | 50 | 100 | – | – | – | – | – | –
11 | O=C1Nc2ccccc2SC1CCCCN1CCN(c2ccc(F)cc2)CC1 (stereo not shown) [Example 38, 2-[4-[4-(4-fluorophenyl)-1-piperazinyl]butyl]-2H-1,4-benzothiazin-3(4H)-one] | 30 | – | 32 ΔmmHg | – | – | 100 | – | –
12 | COc1ccc2c(c1)SC(CCCN1CCN(c3ccccc3OC)CC1)C(=O)N2 (stereo not shown) [Example 6] | 26 | 100 | – | 91 | – | – | – | 64 ΔmmHg
13 | Cc1cccc2c1NC(=O)C(CCCN1CCN(c3ccc(Cl)cc3)CC1)S2 (stereo not shown) [Example 15] | 40 | 100 | – | 20 | 30 | – | – | –
14 | O=C1Nc2cc(C(F)(F)F)ccc2SC1CCCN1CCN(c2ccc(F)cc2)CC1 (stereo not shown) [Example 10] | 45 | 100 | 33 ΔmmHg | – | – | – | – | –
15 | CCc1cccc2c1NC(=O)C(CCCN1CCN(c3ccc(F)cc3)CC1)S2 (stereo not shown) [Example 41] | – | – | 23 ΔmmHg | – | – | – | – | –
16 | COc1ccccc1N1CCN(CCCC2Sc3ccc(Cl)cc3NC2=O)CC1 (stereo not shown) [Example 8] | 34 | 100 | – | 18 | – | – | – | –
17 | Cc1ccccc1N1CCN(CCCC2Sc3cccc(C)c3NC2=O)CC1 (stereo not shown) [Example 17] | 11 | 100 | 26 ΔmmHg | – | – | – | – | –
18 | O=C1Nc2cc3c(cc2SC1CCCN1CCN(c2ccc(F)cc2)CC1)OCO3 (stereo not shown) [Example 45, 6-[3-[4-(4-fluorophenyl)-1-piperazinyl]propyl]-6H-1,3-dioxolo[4,5-g][1,4]benzothiazin-7(8H)-one.dihydrochloride] | – | – | 30 ΔmmHg | – | – | – | – | –

Row | SMILES | inhibition at 10 µM [1] [%] | inhibition at 10 µM [2] [%] | Antihypertensive effect (difference of blood pressure before and after medication) ([3]; 30 mg/Kg oral) | inhibition at 10 µM [4] [%] | inhibition at 1 µM [5] [%] | inhibition at 10 µM ([2]; 0.25 h) [%] | Antihypertensive effect (difference of blood pressure before and after medication) ([3]; 60 mg/Kg oral) | Antihypertensive effect (difference of blood pressure before and after medication) ([3]; 10 mg/Kg oral)
19 | O=C1Nc2ccccc2SC1CCCN1CCN(c2ccc(F)cc2)CC1 (stereo not shown) [Example 3] | 53 | 100 | – | – | – | – | – | –
20 | COc1ccccc1N1CCN(CCCC2Sc3ccccc3NC2=O)CC1 (stereo not shown) [Example 25, 2-[3-[4-(2-methoxyphenyl)-1-piperazinyl]propyl]-2H-1,4-benzothiazin-3(4H)-one] | 10 | – | 66 ΔmmHg | 84 | – | 100 | – | –
21 | CN1C(=O)C(CCN2CCN(c3ccccc3)CC2)Sc2ccccc21 (stereo not shown) [Example 31] | 40 | 100 | – | 62 | – | – | – | –
22 | COc1ccc2c(c1)SC(CCN1CCN(c3ccccc3)CC1)C(=O)N2 (stereo not shown) [Example 29] | 15 | 96 | – | 73 | – | – | – | 38 ΔmmHg
23 | COc1ccccc1N1CCN(CCCC2Sc3cc(C)ccc3NC2=O)CC1 (stereo not shown) [Example 21] | 32 | 100 | – | 56 | – | – | – | –
24 | COc1ccc2c(c1)SC(CCCN1CCN(c3ccccc3)CC1)C(=O)N2 (stereo not shown) [Example 5] | 10 | 100 | – | 100 | – | – | – | 49 ΔmmHg
25 | COc1cccc2c1NC(=O)C(CCCN1CCN(c3ccccc3)CC1)S2 (stereo not shown) [Example 24] | 20 | 100 | – | 66 | – | – | – | –
26 | Cc1cccc2c1NC(=O)C(CCCN1CCN(c3ccc(F)cc3)CC1)S2 (stereo not shown) [Example 12, 2-[3-[4-(4-fluorophenyl)-1-piperazinyl]propyl]-5-methyl-2H-1,4-benzothiazin-3(4H)-one] | 41 | – | – | 96 | 100 | 100 | 49 ΔmmHg | –
27 | COc1ccccc1N1CCN(CCCC2Sc3cc(Cl)ccc3NC2=O)CC1 (stereo not shown) [Example 9] | 40 | 100 | – | 44 | – | – | 35 ΔmmHg | –
28 | Cc1ccc2c(c1C)NC(=O)C(CCCN1CCN(c3ccc(F)cc3)CC1)S2 (stereo not shown) [Example 42] | – | – | 28 ΔmmHg | – | – | – | – | –
29 | O=C1Nc2ccccc2SC1CCN1CCN(c2ccccc2)CC1 (stereo not shown) [Example 27] | 20 | 100 | – | 100 | – | – | – | –
30 | CN1C(=O)C(CCN2CCN(c3ccc(F)cc3)CC2)Sc2ccccc21 (stereo not shown) [Example 30, 2-[2-[4(4-fluorophenyl)-1-piperazinyl]ethyl]-4-methyl-2H-1,4-benzothiazin-3(4H)-one] | 42 | – | 40 ΔmmHg | 100 | – | 90 | – | –
31 | COc1ccccc1N1CCN(CCCC2Sc3cc(C)c(C)cc3NC2=O)CC1 (stereo not shown) [Example 23] | 40 | 100 | 48 ΔmmHg | – | – | – | – | –
32 | COc1ccccc1N1CCN(CCCC2Sc3cccc(C)c3NC2=O)CC1 (stereo not shown) [Example 16] | 33 | 100 | – | 70 | – | – | – | –
33 | O=C1Nc2ccccc2SC1CCN1CCN(c2ccc(F)cc2)CC1 (stereo not shown) [Example 26] | 60 | – | 26 ΔmmHg | – | – | 60 | – | –
34 | COc1ccccc1N1CCN(CCC2Sc3ccccc3NC2=O)CC1 (stereo not shown) [Example 28] | 15 | 100 | 29 ΔmmHg | 100 | – | – | – | –
35 | Cc1cccc2c1NC(=O)C(CCCN1CCN(c3cccc(Cl)c3)CC1)S2 (stereo not shown) [Example 14] | 50 | 100 | 26 ΔmmHg | – | 100 | – | – | –
36 | Cc1cccc2c1NC(=O)C(CCCN1CCN(c3ccccc3)CC1)S2 (stereo not shown) [Example 13] | 40 | 100 | – | 92 | – | – | 36 ΔmmHg | –
